The record followed here is EP3388419A1, “GLI1 INHIBITORS AND USES THEREOF” (Leadiant Biosciences SA, priority 2017, dated 2018).

Experiment [1] relates to DAOY (medulloblastoma cell line). The experiment can be described thus: Cancer cell proliferation, MTT-based assay, DAOY. The following applies: Homo sapiens, 72 h. Here is the method: (§1) The effects on cancer cell proliferation were tested for those compounds shown to be able to reduce Gli1 protein level in NIH3T3 cells. Two different commercial cancer cell lines were used: A375 (metastatic melanoma cell line) and DAOY (medulloblastoma cell line).
(§2) To test the effects on cancer cell proliferation, both cell types were treated for 72 h with increasing doses (10 nM, 50 nM, 100 nM, 250 nM, 500 nM, 1 µM, 5 µM) of each compound and counted at the end of the treatment with an MTT-based assay. IC50 was calculated by GraphPad Prism software.
On the technique in general: Formazan colour is commonly taken as a measure of viable cells.

In experiment [2] the test system is Gli1 protein. Description: Effect on Gli1 protein expression by Western blotting in SAG-stimulated NIH3T3 cells. Conditions: compound 1 µM; for Effect on Gli1 protein: NIH3T3 cells stimulated with SAG (100nM), 24 or 48 h, compared to DMSO control; for Gli1 protein level: Figure 1, NIH3T3 cells, 48 h, reference GANT61 5 µM, result in words. The experiment is classed as cell-based, murine. Details: key to Effect on Gli1 protein: +++: Gli1 protein level strongly reduced (almost abolished) at 24 and 48 h compared to DMSO control; ++: Gli1 protein level reduced (more than 50%) at 48 h compared to DMSO control; +: Gli1 protein level is weakly reduced (about 50%) at 48 h compared to DMSO control. Here is the method: The effect of compounds on Gli1 protein expression was evaluated in HH-responsive murine NIH3T3 cells by Western blotting. Both Gli1 and Ptch1 are targets of the Gli, and Gli1 in particular is considered the best read-out of HH signaling activity.
Briefly, NIH3T3 were stimulated for 48 h with 3-chloro-N-[trans-4-(methylamino)cyclohexyl]-N-[[3-(4-pyridinyl)phenyl]methyl]-benzo[b]thiophene-2-carboxamide (SAG) (100nM) to activate the endogenous HH pathway, and treated for 24 or 48 h with each compound (1 µM). NIH3T3 cells were lysed and subjected to Western blotting using a specific anti-GLI1 antibody. The effect of each compound was compared to that of GANT61 (5 µM), a well known Gli1/2 inhibitor (Lauth M. et al. PNAS 2007, 104, 8455).
(A western blot detects proteins with antibodies after separation by electrophoresis.)

Experiment [3] concerns A375 (metastatic melanoma cell line). The experiment can be described thus: Cancer cell proliferation, MTT-based assay, A375. Conditions: Homo sapiens, A-375, A375, 72 h. Here is the method: as §1, §2
The mark [4] stands for this setting: Table 3, commercially available compounds, read-out: Effect on proliferation DAOY (IC50; nM).
Setting [5] is: Table 3, commercially available compounds.
The mark [6] stands for this setting: Table 3, commercially available compounds, read-out: Effect on proliferation A375 (IC50; nM).
The mark [7] stands for this setting: Table 2, new compounds, read-out: Effect on proliferation DAOY (IC50; nM).
The mark [8] stands for this setting: Table 2, new compounds, read-out: Effect on proliferation A375 (IC50; nM).
Setting [9] is: Figure 2 dose-response curve, read-out: IC50.

“Also recorded” adds a separate entry of the source. Where two headings read alike, the source gives them in different places.

For the molecule `COc1ccc(C(NC(C)=O)c2cc(Cl)c3cccnc3c2O)cc1OC` (stereo not shown) [SST0687AA1, N-[(5-Chloro-8-hydroxy-quinolin-7-yl)-(3,4-dimethoxy-phenyl)-methyl]-acetamide], the IC50 in experiment [1] (setting [4]) and in experiment [3] (setting [6]) was 300 to 1000 nM each time. For the same molecule, the “Effect on Gli1 protein” value in experiment [2] (setting [5]) is given as “+++”.

For `CCCC(=O)NC(c1ccc(Cl)cc1Cl)c1cc(Cl)c2cccnc2c1O` (stereo not shown) [SST0689AA1, N-[(5-Chloro-8-hydroxy-quinolin-7-yl)-(2,4-dichlorophenyl)-methyl]-butyramide], the IC50 in experiment [1] (setting [4]) and in experiment [3] (setting [6]) was 300 to 1000 nM in each case. Moreover, in experiment [2] (setting [5]), the “Effect on Gli1 protein” value is listed as “+++”.

As for `COc1ccc(C(NC(=O)C(C)C)c2cc(Cl)c3cccnc3c2O)cc1OC` (stereo not shown) [SST0769AA1, Propanamide, N-[(5-chloro-8-hydroxy-7-quinolinyl)(3,4-dimethoxyphenyl)methyl]-2-methyl-], the IC50 in experiment [1] (setting [4]) and in experiment [3] (setting [6]) was 300 to 1000 nM in each case. Moreover, in experiment [2] (setting [5]), the “Effect on Gli1 protein” value is “++ (Gli1 protein level reduced (more than 50%) at 48 h compared to DMSO control)”.

With `CCCC(=O)NC(c1ccc(N(CC)CC)cc1)c1cc(Cl)c2cccnc2c1O` (stereo not shown) [SST0771AA1, Butanamide, N-[(5-chloro-8-hydroxy-7-quinolinyl)[4-(diethylamino)phenyl]methyl]-], the IC50 in experiment [1] (setting [4]) and in experiment [3] (setting [6]) was 300 to 1000 nM in each case. For the same molecule, the “Effect on Gli1 protein” value in experiment [2] (setting [5]) is listed as “+++”.

For the molecule `CCCC(=O)NC(c1ccc(C)cc1)c1cc(Cl)c2cccnc2c1O` (stereo not shown) [SST0773AA1, Butanamide, N-[(5-chloro-8-hydroxy-7-quinolinyl)(4-methylphenyl)methyl]-], the IC50 in experiment [1] (setting [4]) and in experiment [3] (setting [6]) was 300 to 1000 nM in each case. Moreover, the “Effect on Gli1 protein” value in experiment [2] (setting [5]) is reported as “+”.

On to `CCCCC(=O)NC(c1ccc(C(C)C)cc1)c1cc(Cl)c2cccnc2c1O` (stereo not shown) [SST0774AA1, Pentanamide, N-[(5-chloro-8-hydroxy-7-quinolinyl)[4-(1-methylethyl)phenyl]methyl]-], for which the IC50 in experiment [1] (setting [4]) and in experiment [3] (setting [6]) was ≤ 300 nM each time. Besides, the “Effect on Gli1 protein” value in experiment [2] (setting [5]) is recorded as “+++”.

Regarding `CCCC(=O)NC(c1ccccc1Cl)c1cc(Cl)c2cccnc2c1O` (stereo not shown) [SST0775AA1, Butanamide, N-[(5-chloro-8-hydroxy-7-quinolinyl)(2-chlorophenyl)methyl]-], the IC50 in experiment [1] (setting [4]) and in experiment [3] (setting [6]) was 300 to 1000 nM throughout. Besides, in experiment [2] (setting [5]), the “Effect on Gli1 protein” value was “+”.

On to `CCCC(=O)NC(c1ccc(Cl)cc1Cl)c1ccc2cccnc2c1O` (stereo not shown) [SST0776AA1, Butanamide, N-[(2,4-dichlorophenyl)(8-hydroxy-7-quinolinyl)methyl]-], for which the IC50 in experiment [1] (setting [4]) and in experiment [3] (setting [6]) was ≤ 300 nM in each case. In addition, in experiment [2] (setting [5]), the “Effect on Gli1 protein” value is recorded as “+++”.

On to `CCCCC(=O)NC(c1ccc(OC)c(OC)c1)c1ccc2cccnc2c1O` (stereo not shown) [SST0777AA1, Pentanamide, N-[(3,4-dimethoxyphenyl)(8-hydroxy-7-quinolinyl)methyl]], for which the IC50 in experiment [1] (setting [4]) and in experiment [3] (setting [6]) was 300 to 1000 nM throughout. The “Effect on Gli1 protein” value in experiment [2] (setting [5]) is “+++”.

Regarding `Clc1cc2c(c3ncccc13)OCN(CCC1=CCCCC1)C2` [SST0791AA1, 2H-Pyrido[3,2-h]-1,3-benzoxazine, 6-chloro-3-[2-(1-cyclohexen-1-yl)ethyl]-3,4-dihydro-], the IC50 in experiment [1] (setting [4]) and in experiment [3] (setting [6]) was ≤ 300 nM in each case. Besides, in experiment [2] (setting [5]), the “Effect on Gli1 protein” value is recorded as “++ (Gli1 protein level reduced (more than 50%) at 48 h compared to DMSO control)”.

Turning to `Clc1cc2c(c3ncccc13)OCN(CCCN1CCOCC1)C2` [SST0792AA1, 2H-Pyrido[3,2-h]-1,3-benzoxazine, 6-chloro-3,4-dihydro-3-[3-(4-morpholinyl)propyl]-], the IC50 in experiment [1] (setting [4]) is ≥ 1000 nM; in experiment [3] (setting [6]), ≤ 300 nM. In addition, in experiment [2] (setting [5]), the “Effect on Gli1 protein” value is given as “+”.

As for `CCCCN1COc2c(cc(Cl)c3cccnc23)C1` [SST0793AA1, 2H-Pyrido[3,2-h]-1,3-benzoxazine, 3-butyl-6-chloro-3,4-dihydro-], the IC50 in experiment [1] (setting [4]) and in experiment [3] (setting [6]) was 300 to 1000 nM each time. Further, in experiment [2] (setting [5]), the “Effect on Gli1 protein” value is “++ (Gli1 protein level reduced (more than 50%) at 48 h compared to DMSO control)”.

On to `Clc1cc2c(c3ncccc13)OCN(CCc1ccccc1)C2` [SST0794AA1, 2H-Pyrido[3,2-h]-1,3-benzoxazine, 6-chloro-3,4-dihydro-3-(2-phenylethyl)-], for which the IC50 in experiment [1] (setting [4]) and in experiment [3] (setting [6]) was ≤ 300 nM in each case. The “Effect on Gli1 protein” value in experiment [2] (setting [5]) is “++ (Gli1 protein level reduced (more than 50%) at 48 h compared to DMSO control)”.

In the case of `c1ccc(CCN2COc3c(ccc4cccnc34)C2)cc1` [SST0823AA1, 3-phenethyl-3,4-dihydro-2H-[1,3]oxazino[5,6-h]quinoline], the IC50 in experiment [1] (setting [7]) and in experiment [3] (setting [8]) was ≤ 300 nM in each case. Moreover, the Gli1 protein level result in experiment [2] is recorded as “drastic reduction of Gli1 protein level; also recorded: abolish Gli1 protein level”. Besides, the “Effect on Gli1 protein” value in experiment [2] (Table 2, new compounds) was “+++”.

Regarding `O=C1Oc2c(ccc3cccnc23)C(c2ccc(Cl)cc2Cl)N1CCc1ccccc1` (stereo not shown) [SST0826AA1, 4-(2,4-dichlorophenyl)-3-phenethyl-3,4-dihydro-2H-[1,3]oxazino[5,6-h]quinolin-2-one], the Gli1 protein level entry in experiment [2] is “slight reduction in Gli1 protein level”.

Regarding `Oc1c(C(NCCc2ccccc2)c2ccc(Cl)cc2Cl)ccc2cccnc12` (stereo not shown) [SST0827AA1, 7-((2,4-dichlorophenyl)(phenethylamino)methyl)quinolin-8-ol], the IC50 in experiment [1] (setting [7]) and in experiment [3] (setting [8]) was ≤ 300 nM each time. Also, the Gli1 protein level result in experiment [2] is on record as “drastic reduction of Gli1 protein level; also recorded: abolish Gli1 protein level”. Further, in experiment [2] (Table 2, new compounds), the “Effect on Gli1 protein” value is recorded as “+++”.

Consider `Fc1cnc2c3c(ccc2c1)CN(CCc1ccccc1)CO3` [SST0891AA1, 8-fluoro-3-phenethyl-3,4-dihydro-2H-[1,3]oxazino[5,6-h]quinoline], for which the IC50 in experiment [1] (setting [7]) and in experiment [3] (setting [8]) was ≥ 1000 nM in each case. In experiment [2], the Gli1 protein level result is “comparable to that obtained with GANT61”. Further, the “Effect on Gli1 protein” value in experiment [2] (Table 2, new compounds) was “+”.

With `c1cnc2c3c(ccc2c1)CN(C1CCCCC1)CO3` [SST0892AA1, 3-cyclohexyl-3,4-dihydro-2H-[1,3]oxazino[5,6-h]quinoline], the IC50 in experiment [1] (setting [9]) is 500 nM; in experiment [1] (setting [7]), 300 to 1000 nM; in experiment [3] (setting [9]), 300 nM; in experiment [3] (setting [8]), ≤ 300 nM. Also, the Gli1 protein level result in experiment [2] is “drastic reduction of Gli1 protein level; also recorded: abolish Gli1 protein level”. Further, the “Effect on Gli1 protein” value in experiment [2] (Table 2, new compounds) is reported as “+++”.

Take `c1ccc2c(c1)CCC(N1COc3c(ccc4cccnc34)C1)C2` (stereo not shown) [SST0893AA1, 3-(1,2,3,4-tetrahydronaphthalen-2-yl)-3,4-dihydro-2H-[1,3]oxazino[5,6-h]quinoline]: the IC50 in experiment [1] (setting [7]) and in experiment [3] (setting [8]) was 300 to 1000 nM throughout. Further, in experiment [2] (Table 2, new compounds), the “Effect on Gli1 protein” value was “+”.

Turning to `COc1ccc(CN2COc3c(ccc4cccnc34)C2)cc1` [SST0910AA1, 3-(4-methoxybenzyl)-3,4-dihydro-2H-[1,3]oxazino[5,6-h]quinoline], the IC50 in experiment [1] (setting [7]) and in experiment [3] (setting [8]) was 300 to 1000 nM throughout. The “Effect on Gli1 protein” value in experiment [2] (Table 2, new compounds) was “+”.

As to `c1cnc2c3c(ccc2c1)CN(CC1CCCCC1)CO3` [SST0912AA1, 3-(cyclohexylmethyl)-3,4-dihydro-2H-[1,3]oxazino[5,6-h]quinoline], the IC50 is ≥ 1000 nM in experiment [1] (setting [7]) and 300 to 1000 nM in experiment [3] (setting [8]). Moreover, the “Effect on Gli1 protein” value in experiment [2] (Table 2, new compounds) is on record as “+”.

For the molecule `c1cnc2c3c(ccc2c1)CN(C1CCCCCC1)CO3` [SST0913AA1, 3-cycloheptyl-3,4-dihydro-2H-[1,3]oxazino[5,6-h]quinoline], the IC50 in experiment [1] (setting [7]) was ≥ 1000 nM; in experiment [3] (setting [8]), 300 to 1000 nM. Besides, in experiment [2] (Table 2, new compounds), the “Effect on Gli1 protein” value was “+”.
